In patent US10344019B2 (priority 2010, dated 2019):
Where two headings read alike, the source gives them in different places.

How the values were obtained:
Assay in all cases: microbe, parasite or virus in culture
Format in all cases: cell-based
[1] = test system: HCV 3a RLuc cells (NS5A chimeric genotype 1b Con1 replicon with consensus genotype 3a NS5A gene); details: Hepatitis C virus
Summary of the method: (§1)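 Replicon cells stably carrying the listed RLuc-encoding dicistronic replicons were seeded and treated with DMSO serial dilutions of compound (10 mM stocks) diluted into culture medium. After 72 h, cells were lysed and Renilla luciferase activity measured. EC50 was derived by non-linear regression.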

[2] = test system: HCV 1b RLuc cells (dicistronic genotype 1b Con1 replicon, RLuc reporter); details: Hepatitis C virus, read-out: 1b (nM)
Summary of the method: (§2)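 Replicons used: genotype 1b Con1, 1a H77, 2a JFH-1, and a 2a JFH-1 chimera with J6-strain NS5A (M31 present), all dicistronic.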

[3] = test system: HCV 1a RLuc cells (dicistronic genotype 1a H77 replicon, RLuc reporter); details: Hepatitis C virus, genotype 1a H77 replicon, read-out: 1a
Summary of the method: as §2

[4] = test system: HCV 4a Rluc cells (NS5A chimeric genotype 1b Con1 replicon with genotype 4a NS5A gene); details: Hepatitis C virus, read-out: 4a
Summary of the method: as §1

[5] = test system: HCV 2a JFH-1 Rluc cells (dicistronic genotype 2a JFH-1 replicon, RLuc reporter); details: Hepatitis C virus, genotype 2a JFH-1 replicon, read-out: 2a JFH
Summary of the method: as §2

[6] = read-out: 3a, genotype 3a NS5A chimeric 1b Con1 replicon
[7] = read-out: 3a, Table 2, genotype 3a NS5A chimeric replicon
[8] = read-out: 3a, Table 1, genotype 3a NS5A chimeric replicon

Structure (SMILES): COC(=O)N[C@H](C(=O)N1CCC[C@H]1c1ncc(-c2ccc3c(c2)C(F)(F)c2cc(-c4ccc5nc([C@@H]6CCCN6C(=O)[C@H](NC(=O)OC)c6ccccc6)[nH]c5c4)ccc2-3)[nH]1)C1CCOCC1 [Example 259]
- EC50 [1, 6]: 0.001 to 0.99 nM
- EC50 [2]: 0.014 nM
- EC50 ([3]; RLuc reporter): 0.001 to 0.999 nM
- EC50 [4]: 0.001 to 0.99 nM
- EC50 ([5]; RLuc reporter): 0.001 to 0.999 nM

Structure (SMILES): COC(=O)NC(C(=O)N1CCC[C@H]1c1ncc(-c2ccc3cc(-c4ccc5c(c4)CCc4nc([C@@H]6CCCN6C(=O)[C@@H](NC(=O)OC)C(C)C)[nH]c4-5)ccc3c2)[nH]1)c1cnccn1 (stereo partly drawn) [Example 231]
- EC50 [1, 6]: 1 to 4.99 nM
- EC50 [2]: 0.019 nM
- EC50 ([3]; RLuc reporter): 0.001 to 0.999 nM
- EC50 [4]: 0.001 to 0.99 nM
- EC50 ([5]; RLuc reporter): 1 to 44 nM

Structure (SMILES): COC(=O)N[C@H](C(=O)N1CCC[C@H]1c1nc2ccc(-c3ccc4c(c3)sc3cc(-c5cnc([C@@H]6CCCN6C(=O)[C@H](NC(=O)OC)c6ccccc6)[nH]5)ccc34)cc2[nH]1)[C@@H](C)OC [Example 251]
- EC50 [1, 6]: 0.001 to 0.99 nM
- EC50 [2]: 0.01 nM
- EC50 ([3]; RLuc reporter): 0.001 to 0.999 nM
- EC50 [4]: 0.001 to 0.99 nM
- EC50 ([5]; RLuc reporter): 0.001 to 0.999 nM

Structure (SMILES): COC(=O)NC(C(=O)N1CCC[C@H]1c1ncc(-c2ccc(-c3ccc4cc(-c5cnc([C@@H]6CCCN6C(=O)C(NC(=O)OC)C(C)C)[nH]5)ccc4c3)cc2)[nH]1)C(C)C (stereo partly drawn) [Example 136]
- EC50 [1, 6]: 0.001 to 0.99 nM
- EC50 [2]: 0.005 nM
- EC50 ([3]; RLuc reporter): 0.001 to 0.999 nM
- EC50 [4]: 0.001 to 0.99 nM
- EC50 ([5]; RLuc reporter): 0.001 to 0.999 nM

Structure (SMILES): COC(=O)N[C@H](C(=O)N1CCC[C@H]1c1ncc(-c2ccc3cc(-c4ccc(-c5cnc([C@@H]6CCCN6C(=O)[C@H](NC(=O)c6ccccn6)c6ccccc6)[nH]5)cc4)ccc3c2)[nH]1)C(C)C [Example 221]
- EC50 [1, 6]: 0.001 to 0.99 nM
- EC50 [2]: 0.017 nM
- EC50 ([3]; RLuc reporter): 0.001 to 0.999 nM
- EC50 [4]: 0.001 to 0.99 nM
- EC50 ([5]; RLuc reporter): 0.001 to 0.999 nM

Structure (SMILES): COC(=O)N[C@H](C(=O)N1CCC[C@H]1c1ncc(-c2ccc3c(c2)CCc2cc(-c4ccc5nc([C@@H]6[C@H]7CC[C@H](C7)N6C(=O)[C@@H](NC(=O)OC)C6CCOCC6)[nH]c5c4)ccc2-3)[nH]1)C1CCOCC1 [Example 77]
- EC50 [1, 7]: 0.001 to 0.99 nM
- EC50 ([2]; 72 h): 0.029 nM
- EC50 ([3]; 72 h, Table 2, 72 hours): 0.001 to 0.999 nM
- EC50 [4]: 0.001 to 0.99 nM
- EC50 ([5]; 72 h, Table 2, 72 hours): 0.001 to 0.999 nM

Structure (SMILES): COC(=O)N[C@H](C(=O)N1CCC[C@H]1c1ncc(-c2ccc3c(c2)CCc2cc(-c4cnc([C@@H]5[C@H]6CC[C@H](C6)N5C(=O)[C@@H](NC(=O)OC)[C@@H](C)OC)[nH]4)ccc2-3)[nH]1)C(C)C [Example 93]
- EC50 [1, 7]: 0.001 to 0.99 nM
- EC50 ([2]; 72 h): 0.023 nM
- EC50 ([3]; 72 h, Table 2, 72 hours): 0.001 to 0.999 nM
- EC50 [4]: 0.001 to 0.99 nM
- EC50 ([5]; 72 h, Table 2, 72 hours): 0.001 to 0.999 nM

Structure (SMILES): COC(=O)N[C@H](C(=O)N1CCC[C@H]1c1ncc(-c2ccc3c(c2)COc2c-3ccc3cc(-c4cnc([C@@H]5CCCN5C(=O)[C@@H](NC(=O)OC)[C@@H](C)OC)[nH]4)ccc23)[nH]1)C1CCOCC1 [Example 15]
- EC50 [1, 8]: 0.001 to 0.99 nM
- EC50 ([2]; 72 h): 0.026 nM
- EC50 ([3]; 72 h, Table 1, 72 hours): 0.001 to 0.999 nM
- EC50 [4]: 0.001 to 0.99 nM
- EC50 ([5]; 72 h, Table 1, 72 hours): 0.001 to 0.999 nM

Structure (SMILES): COC(=O)N[C@H](C(=O)N1CCC[C@H]1c1ncc(-c2ccc3c(c2)COc2c-3ccc3cc(-c4cnc([C@@H]5CCCN5C(=O)[C@H](NC(=O)OC)c5ccccc5)[nH]4)ccc23)[nH]1)C1CCOCC1 [Example 4]
- EC50 [1, 8]: 0.001 to 0.99 nM
- EC50 ([2]; 72 h): 0.11 nM
- EC50 ([3]; 72 h, Table 1, 72 hours): 0.001 to 0.999 nM
- EC50 [4]: 0.001 to 0.99 nM
- EC50 ([5]; 72 h, Table 1, 72 hours): 0.001 to 0.999 nM

Structure (SMILES): COC(=O)N[C@H](C(=O)N1CCC[C@H]1c1nc(-c2ccc3cc(-c4ccc(-c5cnc([C@@H]6CCCN6C(=O)[C@H](NC(=O)OC)c6ccccc6)[nH]5)cc4)sc3c2)c[nH]1)C(C)C [Example 253]
- EC50 [1, 6]: 0.001 to 0.99 nM
- EC50 [2]: 0.005 nM
- EC50 ([3]; RLuc reporter): 0.001 to 0.999 nM
- EC50 [4]: 0.001 to 0.99 nM
- EC50 ([5]; RLuc reporter): 0.001 to 0.999 nM

Structure (SMILES): COC(=O)N[C@H](C(=O)N1CCC[C@H]1c1nc(-c2ccc3cc(-c4ccc5c(ccc6nc([C@@H]7CCCN7C(=O)[C@H](NC(=O)OC)c7ccccc7)[nH]c65)c4)sc3c2)c[nH]1)[C@H](C)OC [Example 257]
- EC50 [1, 6]: 0.001 to 0.99 nM
- EC50 [2]: 0.013 nM
- EC50 ([3]; RLuc reporter): 0.001 to 0.999 nM
- EC50 [4]: 0.001 to 0.99 nM
- EC50 ([5]; RLuc reporter): 0.001 to 0.999 nM

Structure (SMILES): COC(=O)N[C@H](C(=O)N1CCC[C@H]1c1nc2ccc3cc(-c4ccc5cc(-c6cnc([C@@H]7[C@H]8CC[C@H](C8)N7C(=O)[C@H](NC(=O)OC)c7ccccc7)[nH]6)ccc5c4)ccc3c2[nH]1)C(C)C [Example 39]
- EC50 [1, 7]: 1 to 4.99 nM
- EC50 ([2]; 72 h): 0.009 nM
- EC50 ([3]; 72 h, Table 2, 72 hours): 0.001 to 0.999 nM
- EC50 [4]: 0.001 to 0.99 nM
- EC50 ([5]; 72 h, Table 2, 72 hours): 1 to 44 nM
